Source: US10201623B2, “HSP90-targeted cardiac imaging and therapy” (Memorial Sloan-Kettering Cancer Center, priority 2013, dated 2019)

Columns and labels:
[1] = test system: Hsp90; assay: saturation binding of 131I-PU-H71 in prostate cancer cell lines; conditions: several prostate cancer cell lines
[2] = test system: MDA-MB-468 human breast cancer tumors; assay: micro PET of 124I-PUH71 in mice bearing MDA-MB-468 tumors; assay type: in vivo
Protocol: FIG. 4: [^124I]-PUH71 PET in mice bearing a xenografted tumor. a) Representative PET scan of [^124I]-PUH71 in MDA-MB-468 tumor-bearing mice. Location of the tumor is indicated by a red arrow. […] Representative data is shown.
We injected mice bearing MDA-MB-468 human breast cancer tumors with trace amounts of ^124I-PUH71, and imaged with the micro PET at 1, 4 and 24 hours post injection. […] The results are illustrated in FIG. 4.

[3] = stability of 124I-PUH71 in formulation; assay type: physicochemical; conditions: formulated in 5% ethanol in saline (0.9%)
Excerpt: ^124I-PUH71 was produced in formulation. The radioactive half-life is 4.2 days.

[4] = test system: heart muscle; assay: 124I-PUH71 PET-CT cardiac imaging in patients; assay type: in vivo, human
Protocol: Exemplary Procedure Using ^124I-PUH71 (Compound A) The day before the administration of ^124I-PUH71, potassium iodide was administered to the subject to be imaged to minimize the amount of radioactivity in the thyroid. A dose of KI was administered before ^124I-PUH71 was injected in the vein of the arm of the subject through a catheter. A subject was typically administered one tracer-dose of ^124I-PUH71 5% ethanol and 0.9% NaCl, which is < 1/500th of the NOAEL limit derived from rodents using the cold PUH71. A dose of up to 5.5 mCi of ^124I-PUH71 were administered intravenously. ^124I-PUH71 scans were performed immediately, at 3-4 hours, 20-24 hours, and 48-72 hours after injection of the radiotracer. A 30-45 minute scanning time-period is typical for clinical PET studies. Image was acquired on a PET-CT scanner. A low-dose CT was obtained immediately prior to PET imaging; the 0-hour CT is applied to the three PET datasets rapidly-acquired during the first 30 minutes post-injection. Uptake of the PUH71 by heart muscle in 12 patients are illustrated in FIG. 2. The cardiac uptake is plotted on the y-axis, expressed in terms of the standardized uptake value (SUV), here using the SUV mean parameter. The time after injection is plotted on the x-axis, in minutes. Data shown here is from PET scans obtained 0, 10, 20 and ˜180 minutes after tracer injection. […] In 1 patient, the cardiac uptake was less distinct, but the PET imaging methodology was suboptimal compared to the other studies. […] EKG-synchronization, or ‘EKG-gating’, is standard practice in cardiac imaging, for improving the quality of heart-imaging, and it is expected that results will further improve after EKG gating is added. Without intention to be limited by theory, the bits of variation in the SUV could be due to (1) the lack of EKG-gating and (2) the lack of proper attenuation correction. […] The EKG-gating and attenuation correction techniques are standard practice in cardiac nuclear imaging art.

[5] = patients, single iv tracer injection, PET-CT

## CC(C)NCCCn1c(Sc2cc3c(cc2[131I])OCO3)nc2c(N)ncnc21 [^131I-PUH71]
[1]
  selectivity of binding to Hsp90: bound, selectively
[1]; saturable binding
  Bmax: 3 to 7 million sites, per cell

## CC(C)NCCCn1c(Sc2cc3c(cc2[124I])OCO3)nc2c(N)ncnc21 [^124I-PUH71]
[2]; MDA-MB-468 tumor-bearing mice, heart and blood pool similar profile
  clearance from the healthy heart: rapid clearance
[2]; MDA-MB-468 tumor-bearing mice, no cardiac disease expected
  uptake in the heart (PET): no distinct uptake
[2]; micro PET at 1, 4 and 24 hours post injection
  retention in tumors: retained in tumors even at 24 h p.i.
[2]; tumor-bearing mice
  route of clearance of excess radioligand: cleared via the liver and GI tract
[3]
  stability in formulation: stable, in formulation, for several days

## CC(C)NCCCn1c(Sc2cc3c(cc2I)OCO3)nc2c(N)ncnc21 [Compound A]
[4]; PET scans 0, 10, 20 and ~180 minutes after tracer injection, no EKG-gating
  patients whose heart musculature demonstrated visually-distinct uptake: 11 out of 12
[4]; human
  clearance from the bloodstream: rapid clearance
[4]; human heart
  absorption and retention in the human heart: rapid absorption and sustained retention
[4]; [5]
  persistence of visually-distinct cardiac uptake: 3 to 4 h
  time after injection at which uptake in the heart is maximized: less than 10 minutes
  time for which cardiac signal intensity is maintained: ≥ 3 h
